The target in this assay is NTSR1 (Homo sapiens, UniProt P30989). Nature of the assay: […]-Tyr3-NTS radioligand displacement on intact NCI-H1299 cells. Type of assay: cell-based. For orientation: Displacement assays read how much labelled ligand stays bound in the presence of the test substance.

SMILES strings stand for the structures.

NTSR1, sequence (P30989 whole entry): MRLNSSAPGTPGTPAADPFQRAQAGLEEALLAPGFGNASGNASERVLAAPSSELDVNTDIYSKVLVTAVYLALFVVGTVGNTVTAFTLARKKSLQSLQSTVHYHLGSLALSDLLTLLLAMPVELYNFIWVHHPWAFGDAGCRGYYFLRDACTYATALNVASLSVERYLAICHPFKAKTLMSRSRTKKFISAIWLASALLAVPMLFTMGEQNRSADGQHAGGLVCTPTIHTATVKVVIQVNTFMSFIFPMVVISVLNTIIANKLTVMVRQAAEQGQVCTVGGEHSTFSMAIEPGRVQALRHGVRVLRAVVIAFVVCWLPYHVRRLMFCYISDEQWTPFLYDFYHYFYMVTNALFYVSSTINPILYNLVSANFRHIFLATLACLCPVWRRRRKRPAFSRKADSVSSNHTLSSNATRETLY

As for `COc1cccc(OC)c1-c1cc(C(=O)NC2(C(=O)O)C3CC4CC(C3)CC2C4)nn1-c1ccnc2cc(Cl)ccc12` (stereo not shown) [SR48692], the IC50 – broadly, the concentration at which inhibition is half-maximal – was 205 nM.

The values above are taken from paper PMC3965624 (Life sciences, 2014).
